How the values were obtained:
[1] = tested on: hippocampal slice; test: Stimulation-evoked afterdischarge activity in hippocampal slice (field recording and intrinsic optical signal); assay type: cell-based, rat
Method: Sprague-Dawley rats (male and female; 25 to 35 days old) were prepared as described in Aghajanian, A. K. and Rasmussen, K., Synapse 31:331, 1989; and Buckmaster, P. S., Strowbridge, B. W., Schwartzdroin, P. A., J. Neurophysiol. 70:1281, 1993. In most hippocampal slice experiments, simultaneous extracellular field electrode recordings were obtained from CA1 and CA3 areas. For stimulation-evoked afterdischarge (13 slices, 8 animals), the concentration of Mg^2+ in the bathing medium was reduced to 0.9 mM. A bipolar tungsten stimulating electrode was placed on the Schaffer collaterals to evoke synaptically driven field responses in CA1; stimuli consisted to 100 to 300-μs-duration pulses at an intensity of four times population-spike threshold. Afterdischarges were evoked by a 2-s train of such stimuli delivered at 60 Hz. […] In all treatments, perfusion with furosemide-containing medium was begun after a consistent level of bursting had been established.
For imaging of intrinsic optical signals, the tissue was illuminated with a beam of white light (tungsten filament light and lens system; Dedotec USA, Lodi, N.J.) directed through the microscope condenser. The light was controlled and regulated (power supply: Lambda Electronics, Melville, N.Y.) to minimize fluctuations and filtered (695 nm long-pass) so that the slice was transilluminated with long wavelengths (red). Image frames were acquired with a charge-coupled device camera (Dage-MTI) at 30 Hz and were digitized at 8 bits with a spatial resolution of 512 by 480 pixels by means of an Imaging Technology Series 151 imaging system; gains and offsets of the camera-control box and the analog-to-digital board were adjusted to optimize the sensitivity of the system. Imaging hardware was controlled by a 486-PC-compatible computer running software written by D. Hochman and developed with commercially available software tools (Microsoft's C/C++ Compiler and Imaging Technology's ITEX library). To increase signal-to-noise ratio, an averaged image was composed from 16 individual image-frames, integrated over 0.5 s and averaged together. An experimental series typically involved the continuous acquisition of a series of averaged images over a several minute time period; at least 10 of these averaged images were acquired as control images before stimulation. Pseudo-colored images were calculated by subtracting the first control image from subsequently acquired images and assigned a color lookup table to the pixel values. For these images, usually a linear low-pass filter was used to remove high-frequency noise and a linear-histogram stretch was used to map the pixel values over the dynamic range of the system. All operations on these images were linear so that quantitative information was preserved.

[2] = tested on: low grade CNS tumor (astrocytoma, grade 1); test: Intraoperative optical imaging of dye uptake and clearance, low grade human CNS tumor; assay type: in vivo; settings: 1 mg/kg iv bolus
From the text: (§1) The procedure used in Examples 1-4 was as follows. The area of interest was evenly illuminated by a fiber optic light source with the radiation passing through a beam splitter, controlled by a D.C. regulated power supply (Lambda, Inc.) and passed through a 695 nm longpass filter. Images were acquired with a CCD camera (COHU 6500) fitted to the operating microscope with a specially modified cineadaptor. The cortex was stabilized with a glass footplate. Images were acquired at 30 Hz and digitized at 8 bits (512×480 pixels, using an Imaging Technology, Inc. Series 151 system, Woburn, Mass.). Geometrical transformations were applied to images to compensate for small amounts of patient motion (Wohlberg, Digital Imaging Warping, IEEE Computer Society: Los Alamitos, Calif., 1988). […] Raw data (i.e., no digital enhancement) were used for determining the average optical change in specified regions (average size box was 30×30 pixels or 150-250 um^2). For pseudocolor images, a linear low pass filter removed high frequency noise and linear histogram transformations were applied. Noise was defined as the standard deviation of fluctuations it! sequentially acquired control images as 0.003-0.009.
An averaged control image was obtained of the particular cortical surface area of interest. FIG. 1A is a gray-scale image of the area of interest prior to dye administration. […]

[3] = tested on: highly malignant CNS tumor (glioblastoma; astrocytoma, grade IV); test: Intraoperative optical imaging of dye uptake and clearance, malignant human CNS tumor; assay type: in vivo; settings: iv injection; 1 minute and 10 minutes after dye injection
From the text: as §1
This example illustrates optical detection of a highly malignant CNS tumor (glioblastoma; astrocytoma, grade IV). […]

[4] = tested on: rat glioma; settings: in vivo
From the text: This example illustrates a series of experiments using a rat glioma model through an intact skull to investigate whether the inventive method and inventive device could function in to image tumor tissue through an intact skull and through intact skin prior to or after surgery. Far red wavelengths of emr are known to penetrate through bone and skin. Imaging of tumor tissue was attempted through the intact skull of the rat. The extent of tumor identified was not as accurate as with the cortex exposed; however, the area lying beneath the skull with tumor tissue was easily identified and localized, and continued to concentrate dye after several minutes. […] One minute after dye injection, the dye had been cleared from the normal brain and the only residual signal remained in tumor tissue and the sagital/traverse sinuses.
FIG. 5A is a gray scale image of the cranial surface of a rat. The sagital suture runs down the center of the image. Tumor cells had been injected into the left side some days earlier so that this animal had developed a glioma on t he left hemisphere of its brain. The right hemisphere was normal. Box 1 lays over the suspect region of brain tumor, and Box 2 lays over normal tissue. FIG. 5B is a difference image one second after indocyanine green dye had been intraveneously injected into the animal. The region containing tumor tissue becomes immediately visible through the intact cranium. […] The concentration of dye in the center of this difference image is dye circulating in the sagital sinus.
The optical changes were determined by the average optical change in a box placed directly over the tumor and over the normal hemisphere. The increase in absorption is a function of the concentration of dye in the tissue at a particular time. The graph labeled “extracranial tumor” is a plot of the dynamics of the absorption changes within box 1 from FIG. 5A. The graph labeled “extracranial: normal” is a plot of the dynamics of the absorption change within box 2 from FIG. 5A.
The following imaging apparatus was employed in Examples 5 and 6. […]

[5] = tested on: rat glioma; settings: female, F-344, rat, in vivo
From the text: The rat glioma model is a standard predictive model and was used to delineate dye uptake, clearance and overall parameters of optical imaging that result in the best images. The rat glioma model consistently produces reproducible tumors for imaging studies in which the tumor is resected under an operating microscope. A disadvantage of this model is the more sarcoma-like appearance of the tumor and a lesser degree of vascularity compared to human gliomas.
Briefly, the rat glioma model uses an ethylnitrosourea-induced F-344 rat tumor line developed from a clonal population of a spinal malignant astrocytoma. […] The glioma cells were maintained in Weymouth's medium supplemented with 10% fetal calf serum. Viable cells ([…]) were trypsinized from a monolayer culture and implanted stereotaxically into the right cerebral hemisphere of 30 syngeneic female rats, each weighing 140-160 g. The stereotaxic coordinates for right frontal lobe implantation were 4.5 mm anterior to the frontal zero plane, 3 mm right from the midline and 6 mm deep. The rats were anesthetized for implantation. The heads were shaved and scalps opened, and a 1 mm burr hole made at the appropriate coordinates. The cells were injected through a 27 gauge needle, the needle left in place for 30 sec post injection and the hole was covered with bone wax. The scalp was sutured and the animals observed for 3-4 hrs until they returned to normal activity and feeding. The animals were used 10-14 days after tumor implantation. In this model, animals begin to show clinical symptoms from the tumor by 16-19 days, such as decreased activity and feeding, hemiparesis and eventually succumb between 19-27 days from mass effects due to tumor expansion.
Fourteen animals underwent the complete study, including imaging before and after resection of the tumor. The animals were anesthetized with 2% isoflurane, and the femoral vein cannulated for administration of the dye. Anesthesia was maintained with a—chloralose (50 mg/kg administered ip) and urethane (160 mg/kg administered ip). The animals were placed in a stereotaxic holder. Imaging studies were then carried out before or after removal of the cranium. The tumor typically occupied the anterior one half to two thirds of the right hemisphere exposure. The compressed brain without any tumor infiltration was defined as the tumor surround to separate it from the normal hemisphere on the contralateral side.
The following imaging apparatus was employed in Examples 5 and 6. Light was from a tungsten-halogen bulb regulated by a D.C. power supply, passed through a longpass filter (690 nm), and through a right angled prism reflected through a 50 or 100 mm objective lens onto the cortical surface. […]

[6] = 2.5 mM, 20 minutes of perfusion

peak optical change, normal brain [4] | peak optical change, tumor [4] | duration of prolonged increase in optical signal in the tumor [5] | dye uptake rise time, normal [5] | onset of optical signal change after dye injection [5] | peak percentage difference change, tumor [5] | Structure (SMILES) | electrical afterdischarge activity [1, 6] | stimulation-evoked optical changes [1, 6] | reversibility after washout ([1]; 45 minutes of perfusion with normal bathing medium) | epileptiform activity and intrinsic optical signal during electrical stimulation ([1]; following treatment with furosemide) | entry of dye into low grade tumor tissue vs normal brain tissue [2] | retention of dye in malignant tissue [3] | dye clearance, normal vs tumor region ([4]; iv)
 |  |  |  |  |  | NS(=O)(=O)c1cc(C(=O)O)c(NCc2ccco2)cc1Cl [furosemide] | blocked | blocked | restoration of the initial response pattern | blocks the epileptiform activity and the intrinsic optical signal |  |  | 
7.8±2.3% | 13.1±3.9% | > 2 min | 2.4 %/sec | 2 to 3 s | 40.5±9.6% | CC1(C)C(/C=C/C=C/C=C/C=C2\N(CCCCS(=O)(=O)O)c3ccc4ccccc4c3C2(C)C)=[N+](CCCCS(=O)(=O)[O-])c2ccc3ccccc3c21 [indocyanine green] |  |  |  |  | enters low grade tumor tissue faster than normal brain tissue | retained significantly longer in malignant tissue than in benign tumor tissue | the normal tissue has cleared the dye, but dye is still retained in the tumor region
